Entries after “also recorded” stand apart in the source; their conditions may differ.
What was measured:
[1] = test system: calcium-induced arrhythmias in rats; assay: Calcium-induced arrhythmias (CaCl2 injected i.v. into anesthetized rats)
Source text: The experimental method used was that described in Lynch J. J., Rahwan R. G., Witiak D. T.: Effects of 2-substituted-3-dimethylamino-5,6-methylenedioxyindenes on calcium-inducedarrhythmias, J. Cardiovasc. Pharmacol. 3: 49-60 (1981). Male Sprague-Dawley rats weighing 180-250 grams were anesthetized with sodium pentobarbital and a cannula was inserted into the left jugular vein for drug administration. Electrocardiograph equipment was connected to the rat and the lead II was continuously monitored. The compound under test, dissolved in 5% dextrose solution, was administered into the jugular vein of anesthetized rats over a 40 second period. Ten minutes after this treatment, an acute dose of 1 ml/kg of a 10% CaCl2.2H2 O solution was injected into the jugular vein over a period of 10 seconds. The arrhythmias resulting from the calcium administration were graded according to the following criteria: (a) initial change in heart rate following calcium administration; (b) incidences of sinoatrial block, atrioventricular block, ectopic beats, and ventricular flutter and fibrillation; (c) time required for reversion to control ECG; and (d) incidence of mortality.

[2] = test system: mice; assay: Toxicity Tests (intraperitoneal LD50); type: in vivo; details: i.p., table: mean values and 95% confidence limits
[3] = test system: arrhythmia in mammals; details: in vivo
[4] = test system: spontaneously beating right atria; assay: Effects on isolated guinea pig atria: spontaneously beating right atria; type: cell-based
Source text: The effects of pr-MDI, bu-MDI and Q-bu-MDI on the mechanical and electrical behavior of isolated guinea pig atria were investigated by the method of H. Nawrath, J. Pharmacol. Exp. Ther., 16, 176-182 (1980). The compounds were investigated over the concentration range of 10^-8 to 3×10^-4 M.
English short-haired guinea pigs, supplied by Carr Animal Supply, of Powell, Ohio, weighing 300-600 g. were killed by a blow on the head and both atria of the animal were quickly dissected out and suspended in a water-jacketed organ bath containing Krebs-Henseleit solution through which a 95% oxygen/5% carbon dioxide mixture was bubbled at 32° C. The solution contained 6.92 g/l of sodium chloride, 0.35 g/l of potassium chloride, 0.29 g/l of magnesium […] heptahydrate, 0.3 g/l of calcium chloride dihydrate, 0.16 g/l of potassium dihydrogen phosphate, 2.1 g/l of sodium bicarbonate and 2.1 g/l of dextrose. The contractile force generated by the isolated artria was recorded isometrically under a 500 mg. preload using a Narco Biosystems force transducer connected to a physiograph DMP-4B recorder, both the transducer and the recorder being obtained from E & M Instrument Co. of Houston, Texas.
Spontaneously beating right atria were tested in a similar manner.

CCCCC1=Cc2cc3c(cc2C1[N+](C)(C)C)OCO3.[I-] (stereo not shown) [Q-bu-MDI, 2-Butyl-5,6-methylenedioxyindene-1-trimethylammonium iodide]
mortality rate ([1]; 0.5 mg/kg, i.v.): zero
protection against arrhythmia ([1]; 0.5 mg/kg, i.v.): almost complete protection
protection against calcium-induced mortality ([1]; 0.5 mg/kg, i.v.): complete protection against calcium-induced mortality
protection against the calcium-induced bradycardia ([1]; 0.5 mg/kg, i.v.): partial protection
time for reversion to a normal electrocardiogram ([1]; 0.5 mg/kg, i.v.): significantly reduced
effectiveness in suppressing arrhythmias relative to pr-MDI and bu-MDI ([1]; calcium-induced arrhythmias): 7-8 times
concentration effective against calcium-induced arrhythmias ([1]; i.v., 10 min before CaCl2): 0.5 mg/kg
deleterious side effects ([1]; i.v., Q-bu-MDI at 0.5 mg/kg, pr-MDI and bu-MDI at 3.75 mg/kg): no substantial deleterious side effects
LD50 [2]: 65 mg/kg
effectiveness relative to tertiary analog (bu-MDI), average over tests [3]: about four
effect on the contractile force of right atria at the highest concentration ([4]; 3×10^-4 M): positive inotropy
effect on spontaneous atrial rate ([4]; 10^-8 to 3×10^-4 M): only a slight decrease in the spontaneous atrial rate; also recorded: much less than the other two compounds
effect on the contractile force of right atria ([4]; except at 3×10^-4 M for Q-bu-MDI): minimal effects on the contractile force of right atria

Reference: patent US4542153A, “Methods for changing calcium metabolism within the cells of a mammal” (The Ohio State University Research Foundation, priority 1983, dated 1985)
